# Laboratory results: patent publication US11633459B2, “GIP derivatives and uses thereof” (priority 2018, dated 2023)
# Tests used:
# [1] = Sub-chronic in vivo study in DIO mice: food intake and body weight; set-up: species or system DIO male C57BL/6J mice; conditions: Tables 6-8, compound 47 2 nmol/kg, GIP derivatives 30 nmol/kg
# Text: (§1) The purpose of this example is to assess the in vivo effect of the GIP derivatives of the present invention alone and in combination with a GLP-1 receptor agonist on food intake, body weight, and glucose tolerance in diet-induced obese (DIO) mice. The GLP-1 receptor agonist used for this example was a semaglutide-like molecule that has the same pharmacological properties as semaglutide, but a slightly different structure. The compound may be synthesised using methods known in the art, e.g. as described by methods of present Example 1 or as described in WO 2006/097537, example 4.
# (§2) The animals were treated once daily with the GLP-1 receptor agonist (compound no. 47) and/or a GIP derivative of the present invention exemplified by compound no.'s 5, 25 and 31, to assess weight loss, efficacy and glucose tolerance. Animals and Diet
# All animal protocols were approved by an Institutional Animal Care and Use Committee and Ethical Review Committee of Novo Nordisk. Animals were housed according to Novo Nordisk rodent housing standards, and were given ad libitum access to food and water under controlled lighting (12 h:12 h light/dark cycle; lights off 18:00-06:00), temperature (23±2° C.) and relative humidity (50±20%) conditions. […]
# Body weight (BW) and food intake were measured immediately prior to dosing each day. […]
# [2] = Sub-chronic in vivo study in DIO mice: IPGTT (intraperitoneal glucose tolerance test); set-up: species or system DIO male C57BL/6J mice; conditions: Tables 6-8, compound 47 2 nmol/kg, GIP derivatives 30 nmol/kg
# Text: as §1, §2
# All animal protocols were approved by an Institutional Animal Care and Use Committee and Ethical Review Committee of Novo Nordisk. […]
# On the day of the glucose tolerance test (day 15), animals were fasted for 4 h. […] Tail blood glucose levels were measured and mice were injected (t=0) with an intra-peritoneal (i.p.) glucose load of 2 g/kg (200 mg/ml glucose solution, dose volume 10 ml/kg). Tail blood glucose levels were measured at times 0, 15, 30, 60, 90, 120 minutes following the i.p. glucose load. […]
# human GIP receptor = molecular target: T1, human GIP receptor (Homo sapiens, UniProt P48546); assay: In vitro potency, CRE luciferase reporter gene assay, whole BHK cells expressing human GIP receptor; assay type: cell-based; conditions: 0.2% HSA
# T1 construct: expressed in transfected cells; host or cells: BHK cells (parent line BHKTS13), clone BHK CRE luc2P hGIPR clone #5
# T1 sequence (P48546 22-466): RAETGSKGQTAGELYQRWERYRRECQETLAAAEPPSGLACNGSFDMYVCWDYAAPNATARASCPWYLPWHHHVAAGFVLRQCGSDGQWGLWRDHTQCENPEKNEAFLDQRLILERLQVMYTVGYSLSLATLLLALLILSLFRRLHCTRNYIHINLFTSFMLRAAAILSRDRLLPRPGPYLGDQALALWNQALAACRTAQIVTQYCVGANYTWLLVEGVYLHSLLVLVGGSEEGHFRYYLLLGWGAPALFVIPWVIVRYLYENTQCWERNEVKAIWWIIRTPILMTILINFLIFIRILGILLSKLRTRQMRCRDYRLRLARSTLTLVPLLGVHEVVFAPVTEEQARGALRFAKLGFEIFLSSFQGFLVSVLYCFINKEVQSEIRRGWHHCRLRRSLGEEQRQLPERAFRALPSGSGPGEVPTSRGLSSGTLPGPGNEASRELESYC
# How it was run: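 BHK clones carrying a CRE luciferase element, each transfected with one human receptor, were seeded at 5000 cells/well overnight. Compounds were diluted in buffer with 1% ovalbumin and 0.1% Pluronic F-68, with or without human serum albumin. Luminescence was read after steadylite plus; non-linear log(agonist)-response fit, averaged over at least two replicates.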
# in vivo = conditions: female, Göttingen, minipig, iv, 5 nmol/kg
# [3] = Dynamic Light Scattering Stability Index (DLS-SI); assay type: physicochemical; conditions: concentration only 5 μM instead of 250 μM, pH 7.4, 25° C.
# [4] = Chemical stability: HMWP formation by SEC-MS; assay type: physicochemical; conditions: 250 μM, pH 7.4, 37° C., 4 weeks
# Method: The aim of this study is to determine the chemical stability of GIP derivative compositions. As a measure of stability of the GIP derivative composition, the formation of high molecular weight peptide formation (% HMWP) as a function of time was analysed by size-exclusion chromatography (SEC-MS). Further, the purity loss of the GIP derivative compositions was measured by LCMS. Samples for chemical stability assays were freshly prepared before each assay. […] The pH of the sample was adjusted to the desired value using appropriate amounts of concentrated NaOH and HCl. […] Formation of covalent oligomers (HMWPs) was analysed and identified by a SEC-MS method. […] The LC system was coupled to both a TUV detector operated at 215 nm, 10 Hz and a high resolution QToF mass spectrometer from Waters (Synapt G2S) operated in positive ion mode and m/z range of 100 to 4000 with normal resolution setting. Lock mass correction against Leu-Enkephalin was done every 31 sec. Spectra were processed in MassLynx version 4.1 and MaxEnt deconvoluted.
Compound,effect on food intake and body weight (in words) [1],effect on glucose tolerance (in words) [2],HMWP formation (%/month) [4] [%/month],further results
"N{1}-acetyl,N{Epsilon-24}-[(4S)-4-carboxy-4-[[(4S)-4-carboxy-4-[[(4S)-4-carboxy-4-[[4-[(19-carboxynonadecanoylamino)methyl]cyclohexanecarbonyl]amino]butanoyl]-amino]butanoyl]amino]butanoyl]-[D-Tyr1,Nle14,Arg18,Aib20,Lys24]-hGIP(1-31) [Compound 25]",minor effect on food intake,improved glucose tolerance,–,–
"CCCC[C@H](NC(=O)[C@H](C)NC(=O)[C@@H](NC(=O)[C@H](CO)NC(=O)[C@H](Cc1ccc(O)cc1)NC(=O)[C@H](CC(=O)O)NC(=O)[C@H](CO)NC(=O)[C@@H](NC(=O)[C@H](Cc1ccccc1)NC(=O)[C@@H](NC(=O)CNC(=O)[C@H](CCC(=O)O)NC(=O)C(C)(C)NC(=O)[C@@H](Cc1ccc(O)cc1)NC(C)=O)[C@@H](C)O)[C@@H](C)CC)[C@@H](C)CC)C(=O)N[C@@H](CC(=O)O)C(=O)N[C@@H](CCCCN)C(=O)N[C@H](C(=O)N[C@@H](CCCNC(=N)N)C(=O)N[C@@H](CCC(N)=O)C(=O)N[C@@H](CCC(N)=O)C(=O)N[C@@H](CC(=O)O)C(=O)N[C@@H](Cc1ccccc1)C(=O)N[C@H](C(=O)N[C@@H](CCCCNC(=O)CC[C@H](NC(=O)CC[C@H](NC(=O)CC[C@H](NC(=O)CCCCCCCCCCCCCCCCC(=O)O)C(=O)O)C(=O)O)C(=O)O)C(=O)N[C@@H](Cc1c[nH]c2ccccc12)C(=O)N[C@@H](CC(C)C)C(=O)N[C@@H](CC(C)C)C(=O)N[C@@H](C)C(=O)N[C@@H](CCC(N)=O)C(=O)N[C@@H](CCCCN)C(=O)NCC(=O)O)C(C)C)[C@@H](C)CC [Compound 5, N{1}-acetyl, N{Epsilon-24}-[(4S)-4-carboxy-4-[[(4S)-4-carboxy-4-[[(4S)-4-carboxy-4-(17-carboxyheptadecanoylamino)butanoyl]amino]butanoyl]amino]butanoyl]-[D-Tyr1,Aib2,Nle14,Arg18,Lys24]-hGIP(1-31)]",–,–,–,EC50 (human GIP receptor): 0.0209 nM; half-life (in vivo): 79 h
"N^6,26-{18-[N-(17-carboxyheptadecanoyl)-D-γ-glutamyl]-10-oxo-3,6,12,15-tetraoxa-9,18-diazaoctadecanoyl}-[8-(2-amino-2-propanoic acid), 34-L-arginine]human glucagon-like peptide 1(7-37) [Compound 47, reference compound]",induced a reduction in food intake that resulted in body weight loss,improvement in glucose tolerance,–,–
CC[C@H](C)[C@H](NC(=O)[C@H](CO)NC(=O)[C@H](Cc1ccc(O)cc1)NC(=O)[C@H](CC(=O)O)NC(=O)[C@H](CO)NC(=O)[C@@H](NC(=O)[C@H](Cc1ccccc1)NC(=O)[C@@H](NC(=O)CNC(=O)[C@H](CCC(=O)O)NC(=O)[C@H](C)NC(=O)[C@@H](N)Cc1ccc(O)cc1)[C@@H](C)O)[C@@H](C)CC)C(=O)N[C@@H](C)C(=O)N[C@@H](CCSC)C(=O)N[C@@H](CC(=O)O)C(=O)N[C@@H](CCCCN)C(=O)N[C@H](C(=O)N[C@@H](Cc1c[nH]cn1)C(=O)N[C@@H](CCC(N)=O)C(=O)N[C@@H](CCC(N)=O)C(=O)N[C@@H](CC(=O)O)C(=O)N[C@@H](Cc1ccccc1)C(=O)N[C@H](C(=O)N[C@@H](CC(N)=O)C(=O)N[C@@H](Cc1c[nH]c2ccccc12)C(=O)N[C@@H](CC(C)C)C(=O)N[C@@H](CC(C)C)C(=O)N[C@@H](C)C(=O)N[C@@H](CCC(N)=O)C(=O)N[C@@H](CCCCN)C(=O)NCC(=O)O)C(C)C)[C@@H](C)CC [hGIP(1-31)],–,–,0.15,DLS-SI precipitates [3]: formation of large aggregates became visible as precipitation
CC[C@H](C)[C@H](NC(=O)[C@H](CO)NC(=O)[C@H](Cc1ccc(O)cc1)NC(=O)[C@H](CC(=O)O)NC(=O)[C@H](CO)NC(=O)[C@@H](NC(=O)[C@H](Cc1ccccc1)NC(=O)[C@@H](NC(=O)CNC(=O)[C@H](CCC(=O)O)NC(=O)[C@H](C)NC(=O)[C@@H](N)Cc1ccc(O)cc1)[C@@H](C)O)[C@@H](C)CC)C(=O)N[C@@H](C)C(=O)N[C@@H](CCSC)C(=O)N[C@@H](CC(=O)O)C(=O)N[C@@H](CCCCN)C(=O)N[C@H](C(=O)N[C@@H](Cc1c[nH]cn1)C(=O)N[C@@H](CCC(N)=O)C(=O)N[C@@H](CCC(N)=O)C(=O)N[C@@H](CC(=O)O)C(=O)N[C@@H](Cc1ccccc1)C(=O)N[C@H](C(=O)N[C@@H](CC(N)=O)C(=O)N[C@@H](Cc1c[nH]c2ccccc12)C(=O)N[C@@H](CC(C)C)C(=O)N[C@@H](CC(C)C)C(=O)N[C@@H](C)C(=O)N[C@@H](CCC(N)=O)C(=O)N[C@@H](CCCCN)C(=O)NCC(=O)N[C@@H](CCCCN)C(=O)N[C@@H](CCCCN)C(=O)N[C@@H](CC(N)=O)C(=O)N[C@@H](CC(=O)O)C(=O)N[C@@H](Cc1c[nH]c2ccccc12)C(=O)N[C@@H](CCCCN)C(=O)N[C@@H](Cc1c[nH]cn1)C(=O)N[C@@H](CC(N)=O)C(=O)N[C@H](C(=O)N[C@H](C(=O)N[C@@H](CCC(N)=O)C(=O)O)[C@@H](C)O)[C@@H](C)CC)C(C)C)[C@@H](C)CC [hGIP(1-42)],–,–,2.0,–
